Reference: paper PMC5045383 (Oncotarget, 2016)

Assays:
FLT3-ITD [1] = assay: Auto-phosphorylation of FLT3 in transformed BaF3 isogenic cells; assay type: cell-based
Source text: (§1) The following antibodies were purchased from Cell Signaling Technology (Danvers, MA): FLT3 (8F2) Rabbit mAb (#3462), Phospho-FLT3 (Tyr589/591) (30D4) Rabbit mAb (#3464), NF-κB p65 (D14E12) XP® Rabbit mAb (#8242), Phospho-NF-κB p65 (Ser536) (93H1) Rabbit mAb (#3033), Stat5 Antibody (#9363), Phospho-Stat5 (Tyr694) (C71E5) Rabbit mAb (#9314), c-Myc (D84C12) XP® Rabbit mAb (#5605), Akt (pan) (C67E7) Rabbit mAb (#4691), Phospho-Akt (Thr308) (244F9) Rabbit mAb (#4056), Phospho-Akt (Ser473) (D9E) XP® Rabbit mAb (#4060), p44/42 MAPK (Erk1/2) (137F5) Rabbit mAb (#4695), Phospho-p44/42 MAPK (Erk1/2) (Thr202/Tyr204) (D13.14.4E) XP® Rabbit mAb (#4370), GAPDH (D16H11) XP® Rabbit mAb, PARP (46D11) rabbit mAb (#9532), Caspase-3 (8G10) rabbit mAb (#9665), GSK-3β (27C10) Rabbit mAb (#9315), Phospho-GSK-3β (Ser9) (5B3) Rabbit mAb (#9323), FoxO1 (C29H4) Rabbit mAb (#2880), Phospho-FoxO1 (Thr24)/FoxO3a (Thr32)/FoxO4 (Thr28) (4G6) Rabbit mAb (#2599), PRAS40 (D23C7) XP® Rabbit mAb (#2691), Phospho-PRAS40 (Thr246) (C77D7) Rabbit mAb (#2997), 4E-BP1 (#9644), 4E-BP1 (53H11) Rabbit mAb (#9644), p70 S6 Kinase (49D7) Rabbit mAb (#2708), Phospho-p70 S6 Kinase (Thr389) (108D2) Rabbit mAb (#9234). Antibodies were used at 1:1000. Protein lysate preparation and immunoblotting were carried out as previously described.
(§2) Retroviral constructs for BaF3-FLT3 mutants were made based on the pMSCVpuro (Clontech) backbone. For TEL-FLT3 vector, the first 1 kb of human TEL gene with an artificial myristoylation sequence ([…]) was cloned into pMSCVpuro retroviral vector, followed by a 3xFLAG tag sequence and a stop codon. Then the kinase domain coding sequence of FLT3 was inserted in-frame between TEL and 3× FLAG sequences. For full-length expression vectors, the coding sequences of FLT3 variants were directly cloned in pMSCVpuro vector with a 3X FLAG tag at the C-terminal end. All mutagenesis studies were performed using the QuikChange Site-Directed Mutagenesis Kit (Stratagene) following the manufacturer's instructions. […]

FLT3-ITD-F691L = assay: as above; assay type: cell-based
Source text: as §1, §2

FLT3-ITD-D835Y = assay: as above; assay type: cell-based
Source text: as §1, §2

FLT3-ITD kinase = target: FLT3-ITD kinase; set-up: method as in PMID 22037378; conditions: cited from earlier work
[2] = test system: FLT3-ITD mediated signaling in MOLM14 and MV4-11 cell lines; assay: Signaling pathway effect examination (immunoblot); assay type: cell-based, human; conditions: intact FLT3-ITD-positive cell lines, 4 hours
Source text: Cells were then washed in PBS and lysed in cell lysis buffer. FLT3, Phospho-FLT3 (Tyr589/591), AKT, Phospho-AKT Ser473, Phospho-AKT Thr308, GSK-3β, Phospho-GSK-3β (Ser9), Phospho-FoxO1 (Thr24), FoxO1, PRAS40, Phospho-PRAS40 (Thr246), STAT5, Phospho-STAT5 (Tyr694), NF-ΚB-P65, Phospho-NF-ΚB-P65 (Ser536), P70S6K, Phospho-P70S6K Thr389, 4EBP1, Phospho-4EBP1 (Thr37/46), ERK, Phospho-p44/42MAPK (Erk1/2) (Thr202/Tyr204), C-Myc and GAPDH antibodies (Cell Signaling Technology) were used for immunoblotting.

FLT3-ITD [3] = assay: Kinase kinetic assay (ADP-Glo, varied ATP); assay type: biochemical; conditions: range of ATP concentrations
Protocol: Kinetic analyses of FLT3-ITD were performed using a luminometric kinase assay varying the concentration of ATP using the ADP-Glo reagents (Promega). […] After 60 min incubation at RT, various concentrations of ATP, 0.2 μg/μL FLT3 substrate Poly (4:1 Glu, Tyr) peptide added and incubated for 60 min at 37°C. The overall rate of reaction is determined as the slope of the decreasing phase of the reaction. Each data point was collected in duplicate and kinetic parameters were obtained using Prism 5.0 (GraphPad Software, San Diego, CA).

SKM-1 (FLT3-wt) = assay: Cell proliferation assay (CellTiter-Glo); assay type: cell-based, human; conditions: 72 hours
Protocol: (§3) Cells were grown in 96-well culture plates (3000/well). […] Cell proliferation was determined after 72 hours drug treatment. […] Cell viability was measured with the CellTiter–Glo assay (Promega, USA), according to the manufacturer's instructions, and luminescence was measured in a multi-label reader (Envision, PerkinElmer, USA). […] GI50 values were calculated using Prism 5.0 (GraphPad Software, San Diego, CA).

HL-60 (FLT3-wt) = assay: Cell proliferation assay (CellTiter-Glo); assay type: cell-based, human; conditions: 72 hours
Protocol: as §3

EC50 (FLT3-ITD [1]): 85 nM
EC50 (FLT3-ITD-F691L): 400 nM
EC50 (FLT3-ITD-D835Y): 1260 nM
mode of inhibition (kinetics analysis) (FLT3-ITD [3]): ATP competitive inhibitor
GI50 (SKM-1 (FLT3-wt)): 2000 nM
GI50 (HL-60 (FLT3-wt)): 2600 nM
SMILES: Cc1[nH]nc2ccc(-c3cncc(OC[C@@H](N)Cc4ccccc4)c3)cc12 [A674563]
Kd (FLT3-ITD kinase): 83 nM
concentration from which auto-phosphorylation of FLT3-ITD at Y589/591 is affected [2]: ≥ 5 µM
concentration from which phosphorylation of STAT5 and expression of c-MYC are inhibited [2]: ≥ 0.5 µM
